# Results published in US12528802B2, “Heterocyclic compound” (Takeda Pharmaceutical Company Limited, priority 2019, dated 2026).
# Biological target: T1, glucosylceramide synthase (Homo sapiens, UniProt Q16739)
# T1 construct: made in house; host or cells: Expi293F cells (transient expression, pcDNA3.3-TOPO vector); microsome fraction used as enzyme source
# T1 sequence (Q16739 1-394): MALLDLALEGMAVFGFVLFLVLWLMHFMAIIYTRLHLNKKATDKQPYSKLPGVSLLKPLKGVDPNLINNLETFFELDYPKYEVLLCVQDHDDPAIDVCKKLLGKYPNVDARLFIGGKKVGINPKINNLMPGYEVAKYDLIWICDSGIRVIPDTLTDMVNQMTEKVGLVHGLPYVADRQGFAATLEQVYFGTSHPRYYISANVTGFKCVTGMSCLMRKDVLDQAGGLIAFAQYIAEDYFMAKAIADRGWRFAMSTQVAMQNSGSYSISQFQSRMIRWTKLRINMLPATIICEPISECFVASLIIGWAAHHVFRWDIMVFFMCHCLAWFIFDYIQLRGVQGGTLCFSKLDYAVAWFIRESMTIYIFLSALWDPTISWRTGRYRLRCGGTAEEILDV
# Test: Glucosylceramide synthase (GCS) enzyme assay, microsome fraction, C8 glucosylceramide quantified by Rapidfire MS/MS
# Assay type: biochemical
# Details: test compound 10 μM; 1.7 μM UDP-glucose, 3 μM C8 ceramide; room temperature 60 min; read-out: GCS enzyme inhibitory rate at 10 μM (%) (% of control)
# In short: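 Test compound, 10 μM final, was run against human GCS from transfected Expi293F microsome fractions, using substrate solution of 6 μM C8 ceramide (in DOPC liposomes) plus 3.4 μM UDP-glucose, pH 7.5 Tris buffer, 60 min, room temperature. Product C8 glucosylceramide measured by Rapidfire MS/MS against an internal standard, % inhibition referenced to no-enzyme and DMSO wells.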
row,Compound,inhibition at 10 µM
1,"CC(C)(O)c1ccc(N2Cc3c(ccnc3-c3ccc(F)cc3OCC(F)F)C2=O)nc1 [Example 289, 4-[2-(2,2-difluoroethoxy)-4-fluorophenyl]-2-[5-(2-hydroxypropan-2-yl)pyridin-2-yl]-2,3-dihydro-1H-pyrrolo [3,4-c]pyridin-1-one]",98%
2,"O=C1c2ccnc(-c3ccc(F)cc3OCC(F)(F)F)c2CN1c1ccc(C2(O)COC2)cn1 [Example 199, 4-[4-fluoro-2-(2,2,2-trifluoroethoxy)phenyl]-2-[5-(3-hydroxyoxetan-3-yl)pyridin-2-yl]-2,3-dihydro-1H-pyrrolo[3,4-c]pyridin-1-one]",91%
3,"CS(=O)(=O)c1ccc(N2Cc3cnn(-c4ccccc4OCC(F)(F)F)c3C2)nc1 [Example 215, 5-[5-(methanesulfonyl)pyridin-2-yl]-1-[2-(2,2,2-trifluoroethoxy)phenyl]-1,4,5,6-tetrahydropyrrolo[3,4-c]pyrazole]",93%
4,"O=C1c2ccnc(-c3ccc(F)cc3OCC3(F)CC3)c2CN1c1ccc(OC(F)F)cc1 [Example 128, 2-[4-(difluoromethoxy)phenyl]-4-{4-fluoro-2-[(1-fluorocyclopropyl)methoxy]phenyl}-2,3-dihydro-1H-pyrrolo[3,4-c]pyridin-1-one]",99%
5,"CC(C)(O)c1cc2c(c(-c3ccccc3OCC(F)F)n1)CN(c1ccc(OC(F)F)cc1)C2=O [Example 355, 4-[2-(2,2-difluoroethoxy)phenyl]-2-[4-(difluoromethoxy)phenyl]-6-(2-hydroxypropan-2-yl)-2,3-dihydro-1H-pyrrolo[3,4-c]pyridin-1-one]",100%
6,"CC(C)(C)[Si](C)(C)OC1(c2ccc(N3Cc4c(ccnc4-c4ccc(F)cc4OCC(F)(F)F)C3=O)cc2)CC1 [Example 224, 2-[4-(1-{[tert-butyl(dimethyl)silyl]oxy}-cyclopropyl)phenyl]-4-[4-fluoro-2-(2,2,2-trifluoroethoxy)phenyl]-2,3-dihydro-1H-pyrrolo[3,4-c]pyridin-1-one]",99%
7,"O=C1c2cc(C3CCOCC3)nc(-c3ccc(F)cc3OCC(F)(F)F)c2CN1c1ccc(F)cc1 [Example 382, 2-(4-fluorophenyl)-4-[4-fluoro-2-(2,2,2-trifluoroethoxy)phenyl]-6-(oxan-4-yl)-2,3-dihydro-1H-pyrrolo [3,4-c]pyridin-1-one]",97%
8,"CC1(Oc2ccc(N3Cc4c(ccnc4-c4ccccc4OCC(F)(F)F)C3=O)cn2)COC1 [Example 204, 2-{6-[(3-methyloxetan-3-yl)oxy]pyridin-3-yl}-4-[2-(2,2,2-trifluoroethoxy)phenyl]-2,3-dihydro-1H-pyrrolo[3,4-c]pyridin-1-one]",97%
9,"O=C(c1ccc(-c2nccc3c2CN(c2ccc(OC(F)F)nc2)C3=O)c(OCC(F)(F)F)c1)N1CCC1 [Example 118, 4-[4-(azetidine-1-carbonyl)-2-(2,2,2-trifluoroethoxy)phenyl]-2-[6-(difluoromethoxy)pyridin-3-yl]-2,3-dihydro-1H-pyrrolo[3,4-c]pyridin-1-one]",96%
10,"CC(C)(O)c1ccc(N2Cc3c(cc(C4CCOC4)nc3-c3ccccc3OCC(F)F)C2=O)cc1 (racemic) [Example 390, rac-4-[2-(2,2-difluoroethoxy)phenyl]-2-[4-(2-hydroxypropan-2-yl)phenyl]-6-(oxolan-3-yl)-2,3-dihydro-1H-pyrrolo[3,4-c]pyridin-1-one]",77%
11,"Cc1cc(N2Cc3c(ccnc3-c3ccc(F)cc3OCC(F)(F)F)C2=O)nn1C [Example 82, 2-(1,5-dimethyl-1H-pyrazol-3-yl)-4-[4-fluoro-2-(2,2,2-trifluoroethoxy)phenyl]-2,3-dihydro-1H-pyrrolo[3,4-c]pyridin-1-one]",88%
12,"CCOC(=O)c1ccc(-c2nccc3c2CN(c2ccc(F)cc2)C3=O)c(OC)c1 [Example 48, ethyl 4-[2-(4-fluorophenyl)-1-oxo-2,3-dihydro-1H-pyrrolo[3,4-c]pyridin-4-yl]-3-methoxybenzoate]",70%
13,"O=C1c2ccnc(-c3ccc(F)cc3OCC(F)(F)F)c2CN1c1cnn(CC2CC2)c1 [Example 153, 2-[1-(cyclopropylmethyl)-1H-pyrazol-4-yl]-4-[4-fluoro-2-(2,2,2-trifluoroethoxy)phenyl]-2,3-dihydro-1H-pyrrolo[3,4-c]pyridin-1-one]",98%
14,"O=C1c2ccnc(-c3ccc(F)cc3OCC(F)(F)F)c2CN1c1cnn(CC(F)F)c1 [Example 93, 2-[1-(2,2-difluoroethyl)-1H-pyrazol-4-yl]-4-[4-fluoro-2-(2,2,2-trifluoroethoxy)phenyl]-2,3-dihydro-1H-pyrrolo[3,4-c]pyridin-1-one]",95%
15,"O=C1c2ccnc(-c3ccncc3OCC(F)(F)F)c2CN1c1ccc(C2(O)CC(F)(F)C2)c(F)c1 [Example 287, 2-[4-(3,3-difluoro-1-hydroxycyclobutyl)-3-fluorophenyl]-4-[3-(2,2,2-trifluoroethoxy)pyridin-4-yl]-2,3-dihydro-1H-pyrrolo[3,4-c] pyridin-1-one]",99%
16,"Cc1cc2c(c(-c3ccccc3OCC(F)(F)F)n1)CN(c1ccc(OCC(C)(C)O)nc1)C2=O [Example 367, 2-[6-(2-hydroxy-2-methylpropoxy)pyridin-3-yl]-6-methyl-4-[2-(2,2,2-trifluoroethoxy)phenyl]-2,3-dihydro-1H-pyrrolo[3,4-c] pyridin-1-one]",99%
17,"O=C1c2ccnc(-c3ccncc3OCC(F)(F)F)c2CN1c1ccc(C2(O)CCC2)cc1 [Example 210, 2-[4-(1-hydroxycyclobutyl)phenyl]-4-[3-(2,2,2-trifluoroethoxy)pyridin-4-yl]-2,3-dihydro-1H-pyrrolo[3,4-c]pyridin-1-one]",99%
18,"O=C1c2[nH]nc(-c3ccc(F)cc3OCC(F)(F)F)c2CN1c1ccc(F)cc1 [Example 146, 5-(4-fluorophenyl)-3-[4-fluoro-2-(2,2,2-trifluoroethoxy)phenyl]-4,5-dihydropyrrolo[3,4-c]pyrazol-6(1H)-one]",55%

# Continued, values first:
row,inhibition at 10 µM,Compound
1,100%,"CC(C)(O)c1cc2c(c(-c3ccccc3OCC(F)F)n1)CN(c1ccc(C(C)(C)C#N)cc1)C2=O [Example 360, 2-(4-{4-[2-(2,2-difluoroethoxy)phenyl]-6-(2-hydroxypropan-2-yl)-1-oxo-1,3-dihydro-2H-pyrrolo [3,4-c]pyridin-2-yl}phenyl)-2-methylpropanenitrile]"
2,100%,"CC(C)(O)c1ccc(N2Cc3c(cn(C4CC4)c(=O)c3-c3ccccc3OCC(F)(F)F)C2=O)cc1 [Example 371, 5-cyclopropyl-2-[4-(2-hydroxypropan-2-yl)phenyl]-7-[2-(2,2,2-trifluoroethoxy)phenyl]-1H-pyrrolo[3,4-c]pyridine-3,6(2H,5H)-dione]"
3,56%,"COc1ccccc1-c1nccc2c1CN(c1ccc(C#N)cc1)C2=O [Example 18, 4-[4-(2-methoxyphenyl)-1-oxo-1,3-dihydro-2H-pyrrolo[3,4-c]pyridin-2-yl]benzonitrile]"
4,97%,"O=C1c2ccnc(-c3ccc(F)cc3OCC(F)(F)F)c2CN1c1ccc(C2(O)CCOC2)cc1 (single isomer, unassigned) [Example 243, (R or S)-4-[4-fluoro-2-(2,2,2-trifluoroethoxy)phenyl]-2-[4-(3-hydroxyoxolan-3-yl)phenyl]-2,3-dihydro-1H-pyrrolo[3,4-c]pyridin-1-one]"
5,100%,"CC(C)(O)COc1ccc(N2Cc3c(ccnc3-c3ccccc3OCC(F)(F)F)C2=O)cc1 [Example 195, 2-[4-(2-hydroxy-2-methylpropoxy)phenyl]-4-[2-(2,2,2-trifluoroethoxy)phenyl]-2,3-dihydro-1H-pyrrolo[3,4-c]pyridin-1-one]"
6,99%,"N#Cc1ccc(N2Cc3c(ccnc3-c3ccc(F)cc3OCC(F)(F)F)C2=O)nc1 [Example 71, 6-{4-[4-fluoro-2-(2,2,2-trifluoroethoxy)phenyl]-1-oxo-1,3-dihydro-2H-pyrrolo[3,4-c]pyridin-2-yl}pyridine-3-carbonitrile]"
7,91%,"O=C1c2ccnc(-c3ccncc3OCC(F)(F)F)c2CN1c1ccc(F)cc1 [Example 77, 2-(4-fluorophenyl)-4-[3-(2,2,2-trifluoroethoxy)pyridin-4-yl]-2,3-dihydro-1H-pyrrolo[3,4-c]pyridin-1-one]"
8,98%,"Cc1cc2c(n(-c3ccccc3OCC(F)(F)F)c1=O)CN(c1ccc(C(C)(C)O)cc1)C2=O [Example 337, 6-[4-(2-hydroxypropan-2-yl)phenyl]-3-methyl-1-[2-(2,2,2-trifluoroethoxy)phenyl]-6,7-dihydro-1H-pyrrolo[3,4-b]pyridine-2,5-dione]"
9,98%,"O=C1c2ccnc(-c3ccccc3OCC(F)(F)F)c2CN1c1ccc(C(O)C(F)(F)F)nc1 (single isomer, unassigned) [Example 276, (R or S)-4-[2-(2,2,2-trifluoroethoxy)phenyl]-2-[6-(2,2,2-trifluoro-1-hydroxyethyl)pyridin-3-yl]-2,3-dihydro-1H-pyrrolo[3,4-c]pyridin-1-one]"
10,97%,"CC(=O)c1ccc(N2Cc3c(ccnc3-c3c(F)cccc3OCC(F)(F)F)C2=O)cc1 [Example 319, 2-(4-acetylphenyl)-4-[2-fluoro-6-(2,2,2-trifluoroethoxy)phenyl]-2,3-dihydro-1H-pyrrolo[3,4-c]pyridin-1-one]"
